For data set [1] the following is noted: 25.0 °C.
For data set [2] the following is noted: amide bond, DMF, 25.0 °C.
Data set [3] has as its target T1, porcine Aminopeptidase N (APN) (Sus scrofa, UniProt P15145).
T1 construct: microsomal aminopeptidase from porcine kidney (pAPN, Sigma Aldrich) (18 units/mg protein); purchased Sigma Aldrich; host or cells: porcine kidney (tissue-derived enzyme preparation)
T1 sequence (P15145 1-963): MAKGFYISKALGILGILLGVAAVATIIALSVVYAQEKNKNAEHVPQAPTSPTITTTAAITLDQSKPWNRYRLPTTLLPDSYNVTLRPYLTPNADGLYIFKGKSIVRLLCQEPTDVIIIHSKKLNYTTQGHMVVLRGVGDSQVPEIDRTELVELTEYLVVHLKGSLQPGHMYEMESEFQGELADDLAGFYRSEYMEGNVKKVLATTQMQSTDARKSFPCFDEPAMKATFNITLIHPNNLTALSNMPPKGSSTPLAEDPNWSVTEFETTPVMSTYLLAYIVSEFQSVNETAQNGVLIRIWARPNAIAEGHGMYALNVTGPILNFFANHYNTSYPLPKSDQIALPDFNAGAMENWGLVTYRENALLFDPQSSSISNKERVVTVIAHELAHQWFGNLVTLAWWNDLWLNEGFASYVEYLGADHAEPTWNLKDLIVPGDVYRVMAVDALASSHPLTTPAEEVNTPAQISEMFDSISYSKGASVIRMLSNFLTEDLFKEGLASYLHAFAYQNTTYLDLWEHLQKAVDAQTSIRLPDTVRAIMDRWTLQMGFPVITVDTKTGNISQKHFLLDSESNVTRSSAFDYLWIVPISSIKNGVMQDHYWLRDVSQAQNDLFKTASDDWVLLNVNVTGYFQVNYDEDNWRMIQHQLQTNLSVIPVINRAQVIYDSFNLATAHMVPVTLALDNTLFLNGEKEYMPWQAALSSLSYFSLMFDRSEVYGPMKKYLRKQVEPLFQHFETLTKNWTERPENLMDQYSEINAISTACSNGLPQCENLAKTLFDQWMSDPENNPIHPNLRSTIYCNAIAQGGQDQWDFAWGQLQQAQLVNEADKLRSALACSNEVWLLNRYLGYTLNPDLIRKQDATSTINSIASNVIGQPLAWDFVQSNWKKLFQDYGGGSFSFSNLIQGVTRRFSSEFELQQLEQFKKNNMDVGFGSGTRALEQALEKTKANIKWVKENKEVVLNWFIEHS
As to the kind of experiment: in vitro inhibition assay of aminopeptidase N (spectrophotometric, L-leucine-p-nitroanilide substrate). It counts as biochemical. As to conditions: microsomal aminopeptidase from porcine kidney (pAPN), L-leucine-p-nitroanilide 250 μM, PBS pH 7.2, 37° C., 1 hour, UV 405 nm.
Protocol: IC50 values were calculated by following the formation of p-nitroaniline. Formation of p-nitroaniline was monitored by measurement of the UV absorption at 405 nm on a Hidex Sense plate reader. The assay was performed in a 96-well plate in PBS buffer (pH 7.2, 1.47 mM KH2PO4, 7.8 mM Na2HPO4, 137 mM NaCl, 2.7 mM KCl, 1.8 mM CaCl2, 1.8 mM MgCl2) at 37° C. with a total volume of 100 μL. […] The peptides were incubated with the enzyme (1.0 μg/mL) for 5 min. before a solution of L-leucine-p-nitroanilide was added with a final concentration of 250 μM. The plate was incubated at 37° C. for 1 hour before the p-nitroaniline was detected. […] For the calculation of the IC50 values log of the concentration was plotted against the UV absorption in GraphPad Prism 5 using nonlinear regression (variable slope (four parameters) with interpolation) for analysis.

For data set [4] the following is noted: 25.0 °C. This is another data set of the same source.
Where [5] appears, read: amide bond, 12-membered ring, DEPBT/DIPEA, DMF, 1.0 mM.

“And” between values parts separate entries of the source, which are not always exact repeats. Equal values may be shown once. Read-outs that look alike come from different tables or passages of the source.

As a reminder, the IC50 is the concentration needed to halve the response being measured.

Compound “Cyclo-(Phe-Glu(^tBu)-GAz(Boc)-Thr(^tBu)-Gly)” registered a ring closure, isolated yield in data set [1] (amide bond, 15-membered ring, DEPBT/DIPEA, DMF, 5.0 mM) of 73%.
`CC(C)C[C@@H]1NC(=O)[C@H](Cc2ccc(O)cc2)NC(=O)[C@H](C)NC(=O)CNC(=O)[C@H](C)NC1=O` [Cyclo(Ala-Gly-Ala-Tyr-Leu)] had a ring closure, yield of all isomers in data set [2] (from CC(C)C[C@H](NC(=O)[C@H](Cc1ccc(O)cc1)NC(=O)[C@H](C)NC(=O)CNC(=O)[C@H](C)N)C(=O)O, DEPBT/DIPEA, 1.0 mM, 24.0 h) of 42%.
On to `C[C@@H](OC(C)(C)C)[C@@H]1NC2(CNC(=O)[C@H](CCC(=O)OC(C)(C)C)NC(=O)[C@H](Cc3ccccc3)NC(=O)CNC1=O)CN(C(=O)OC(C)(C)C)C2` [Cyclo-(Phe-Glu(^tBu)-GAz(Boc)-Thr(^tBu)-Gly)], for which the ring closure, yield of all isomers in data set [2] (from C[C@@H](OC(C)(C)C)[C@H](NC1(CNC(=O)[C@H](CCC(=O)OC(C)(C)C)NC(=O)[C@@H](N)Cc2ccccc2)CN(C(=O)OC(C)(C)C)C1)C(=O)NCC(=O)O, DEPBT, 5.0 mM, 68.0 h) is 73%.
`CC(C)C[C@@H]1NC(=O)[C@H](Cc2ccc(O)cc2)NC(=O)[C@H](C)NC2(CNC(=O)[C@H](C)NC1=O)COC2` [Cyclo(Ala-GOx-Ala-Tyr-Leu)] gave a ring closure, yield of all isomers in data set [2] (from CC(C)C[C@H](NC(=O)[C@H](Cc1ccc(O)cc1)NC(=O)[C@H](C)NC1(CNC(=O)[C@H](C)N)COC1)C(=O)O, DEPBT/DIPEA, 1.0 mM, 24.0 h) of 54%.
With `N=C(N)NCCC[C@@H]1NC2(CNC(=O)[C@H](CC(N)=O)NC(=O)[C@@H](N)CSSC[C@@H](C(=O)O)NC1=O)COC2` [Compound 12, Cyclo(H-CVs-Asn-GOx-Arg-CVs-OH)], the concentration for half-maximal inhibition (IC50) in data set [3] is 175 µM.
Cyclo(Ser-Met-Ala-Trp-GOx-Gly-Leu) registered a ring closure, yield after HPLC in data set [4] (amide bond, 21-membered ring, DEPBT/DIPEA, DMF, 1.0 mM, with chain assembly) of 13%.
Compound `CC(C)C[C@@H]1NC(=O)[C@H](Cc2c[nH]c3ccccc23)NC(=O)CNC2(COC2)[C@H](C)NC1=O` [Cyclo(Trp-Leu-AOx-Gly)] gave a ring closure, yield of all isomers in data set [2] (from CC(C)C[C@H](NC(=O)[C@@H](N)Cc1c[nH]c2ccccc12)C(=O)N[C@@H](C)C1(NCC(=O)O)COC1, DEPBT, 1.0 mM, 48.0 h) of 50%.
For Cyclo(Boc-Cys-GOx-Cys-OtBu), in data set [1] (disulfide bond, 11-membered ring, I2, MeOH, 5.0 mM), the ring closure, isolated yield worked out at 64%.
As for Cyclo(Leu-GOx-Gly-Trp(Boc)), the ring closure, isolated yield in data set [1] (amide bond, 12-membered ring, DEPBT/DIPEA, DMF, 1.0 mM, with chain assembly) worked out at 39%.
“Cyclo-(Leu-Tyr(^tBu)-Val-GAz(Boc)-Thr(^tBu)-Phe)” came in with a ring closure, isolated yield in data set [1] (amide bond, 18-membered ring, DEPBT/DIPEA, DMF, 5.0 mM) of 57%.
For the compound Cyclo-((D)Pro-Leu-GAz(Boc)-Gly), the ring closure, isolated yield in data set [1] (setting [5]) is 79%.
In the case of `CC(C)C[C@@H]1NC(=O)[C@H](Cc2c[nH]c3ccccc23)NC(=O)CNC(=O)CNC1=O` [Cyclo(Trp-Leu-Gly-Gly)], the ring closure, yield of all isomers in data set [2] (from CC(C)C[C@H](NC(=O)[C@@H](N)Cc1c[nH]c2ccccc12)C(=O)NCC(=O)NCC(=O)O, PyBOP/DIPEA, 1.0 mM, 48.0 h) turned out to be 15%.
Take Cyclo(Trp-Leu-GOx-Gly): the ring closure, isolated yield in data set [1] (amide bond, 12-membered ring, DEPBT/DIEA, DMF, 1.0 mM) was 65%.
For `CC(C)C[C@@H]1NC(=O)[C@H](Cc2cn(C(=O)OC(C)(C)C)c3ccccc23)NC(=O)CNC2(CNC1=O)COC2` [Cyclo(Leu-GOx-Gly-Trp(Boc))], in data set [2] (from CC(C)C[C@H](N)C(=O)NCC1(NCC(=O)N[C@@H](Cc2cn(C(=O)OC(C)(C)C)c3ccccc23)C(=O)O)COC1, DEPBT, 1.0 mM, 64.0 h, 6 steps), the ring closure, yield of all isomers came to 39%.
Cyclo(Trp-Leu-Gly-Gly) gave a ring closure, isolated yield in data set [1] (amide bond, 12-membered ring, PyBOP/DIEA, DMF, 1.0 mM) of 15%.
The compound `CC(C)C[C@@H]1NC(=O)[C@H](Cc2ccccc2)NC(=O)[C@H]([C@@H](C)OC(C)(C)C)NC2(CNC(=O)[C@H](C(C)C)NC(=O)[C@H](Cc3ccc(OC(C)(C)C)cc3)NC1=O)CN(C(=O)OC(C)(C)C)C2` [Cyclo-(Leu-Tyr(^tBu)-Val-GAz(Boc)-Thr(^tBu)-Phe)] showed a ring closure, yield of all isomers in data set [2] (from CC(C)C[C@H](N)C(=O)N[C@@H](Cc1ccc(OC(C)(C)C)cc1)C(=O)N[C@H](C(=O)NCC1(N[C@H](C(=O)N[C@@H](Cc2ccccc2)C(=O)O)[C@@H](C)OC(C)(C)C)CN(C(=O)OC(C)(C)C)C1)C(C)C, DEPBT, 5.0 mM, 48.0 h) of 57%.
Take Cyclo(H-CVs-Asn-GOx-Arg-CVs-OH): the ring closure, yield after HPLC in data set [4] (disulfide bond, 17-membered ring, I2, MeOH, 10.0 mM, 2 steps) is 32%.
Cyclo(Ala-Gly-Ala-Tyr-Leu) returned a ring closure, isolated yield in data set [1] (amide bond, 15-membered ring, DEPBT/DIPEA, DMF, 1.0 mM) of 42%.
`CC(C)C[C@@H]1NC(=O)[C@H](Cc2c[nH]c3ccccc23)NC(=O)CNC2(CNC1=O)COC2` [Cyclo(Trp-Leu-GOx-Gly)] displayed a ring closure, yield of all isomers in data set [2] (from CC(C)C[C@H](NC(=O)[C@@H](N)Cc1c[nH]c2ccccc12)C(=O)NCC1(NCC(=O)O)COC1, DEPBT/DIPEA, 1.0 mM, 48.0 h) of 65%.
In turn, Cyclo(Ala-GOx-Ala-Tyr-Leu) registered a ring closure, isolated yield in data set [1] (amide bond, 15-membered ring, DEPBT/DIEA, DMF, 1.0 mM) of 54%.
On to Cyclo(Met-Ala-Trp-GOx-Gly-Leu), for which the ring closure, yield after HPLC in data set [4] (amide bond, 18-membered ring, DEPBT/DIPEA, DMF, 1.0 mM, with chain assembly) turned out to be 7%.
Turning to Cyclo(Trp-Leu-AOx-Gly), the ring closure, isolated yield in data set [1] (setting [5]) was 49% and 50%.
In data set [4] (amide bond, 15-membered ring, DEPBT/DIPEA, DMF, 1.0 mM, with chain assembly), Cyclo(Ala-Trp-GOx-Gly-Leu) showed a ring closure, yield after HPLC of 13%.

For the origin of these results see US11713339B2, “Macrocyclization of peptidomimetics” (UNIVERSITY OF WARWICK, priority 2018, dated 2023).
